# Test results as given in patent US20110236897A1, “NOVEL MARKERS FOR […] DISEASE CAUSED BY BRAIN INJURY AND USE THEREOF” (priority 2010, published 2011).
# “Also recorded” adds a separate entry of the source.
# Tested on: cerebral cortex of F1 C57BL/6N mice
# Test: Microarray expression profiling of F1 cerebral cortex after prenatal exposure to MDMA
# [1] = F1 female, prenatal MDMA 20 mg/kg/day vs vehicle
# [2] = F1 male, prenatal MDMA 20 mg/kg/day vs vehicle
# [3] = common to F1 females and males, cerebral cortex, compared with control group, hydrochloride
smiles,measurement,setting,value
CNC(C)Cc1ccc2c(c1)OCO2 (racemic) [MDMA],differentially expressed genes after prenatal exposure to MDMA (female group),"F1 female cerebral cortex at 11 weeks, dams 20 mg/kg/day p.o. GD 6 to PND 21, vs vehicle, Welch's T-test P<0.05, 1.5 fold change cut-off","1,784 genes"
same,genes under-expressed in the female cerebral cortex,[1],399 genes
same,genes up-regulated (over-expressed) in the female cerebral cortex,[1],"1,385 genes"
same,differentially expressed genes after prenatal exposure to MDMA (male group),"F1 male cerebral cortex at 11 weeks, dams 20 mg/kg/day p.o. GD 6 to PND 21, vs vehicle, Welch's T-test P<0.05, 1.5 fold change cut-off",804 genes
same,genes under-expressed in the male cerebral cortex,[2],469 genes
same,genes up-regulated in the male cerebral cortex,[2],335 genes
same,common genes selected from the differentially expressed genes of females and males,"common to 1,784 genes of females and 804 genes of males",90 genes
same,Expression change of the 1st to 36th genes of the 90 common genes,[3],reduced; also recorded: down-
same,Expression change of the 37th to 90th genes of the 90 common genes,[3],up-
same,effect on transcriptomic configuration of the cerebral cortex among offspring,"maternal ingestion during pregnancy and lactation, F1 generation, hydrochloride",considerably affected; also recorded: this change was permanent
